Experimental data taken from PMC7029660, “Functional Division Between the RecA1 and RecA2 Proteins in Myxococcus xanthus” (Frontiers in Microbiology, 2020).

Target: T1, RecA1 (Myxococcus xanthus, UniProt Q1DCC5)
T1 construct: gene recA; full-length gene in pET15b, expressed in E. coli BL21(DE3), Ni-NTA purified
T1 sequence (Q1DCC5 1-342): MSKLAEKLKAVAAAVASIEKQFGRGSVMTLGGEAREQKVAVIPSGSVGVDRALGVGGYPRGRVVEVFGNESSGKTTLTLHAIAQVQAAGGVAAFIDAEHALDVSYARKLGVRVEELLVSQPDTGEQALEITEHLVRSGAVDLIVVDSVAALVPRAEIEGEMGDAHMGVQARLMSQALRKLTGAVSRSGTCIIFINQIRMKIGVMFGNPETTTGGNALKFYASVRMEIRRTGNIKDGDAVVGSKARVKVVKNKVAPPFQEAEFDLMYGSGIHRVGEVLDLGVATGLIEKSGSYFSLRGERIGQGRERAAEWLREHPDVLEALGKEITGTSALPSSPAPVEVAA
Experiment: ATPase assay, released inorganic phosphate (kit)
Type: biochemical
Details: 3 mM ATP, 5 mM MgCl2, 1 mM CaCl2, pH 7.4, 32 °C; with or without ssDNA or dsDNA

Nc1ncnc2c1ncn2[C@@H]1O[C@H](COP(=O)(O)OP(=O)(O)OP(=O)(O)O)[C@@H](O)[C@H]1O [ATP]
ATPase assay, released inorganic phosphate (kit): RecA1 and RecA2 both exhibited low ATPase activities
